“Also recorded” adds a separate entry of the source.
Experiments:
Type in all cases: in vivo
STAM mice [1] = experiment: STAM model: whole blood and plasma biochemistry; details: for Whole Blood Glucose Levels: non-fasting, 5-9 wks
Procedure: (§1) NASH-HCC (STAM™) Model. C57BL/6 (15-day-pregnant female) mice are obtained from Charles River Laboratories Japan (Kanagawa, Japan). Male pups are selected for the study. NASH is induced in male mice by a single subcutaneous injection of 200 μg streptozotocin (STZ, Sigma-Aldrich, USA) solution 2 days after birth, followed by feeding a HFD (57 kcal % fat, cat#: HFD32, CLEA Japan, Japan) beginning at 4 weeks of age. At 5 weeks of age, mice are divided into a control group and one or more treated group (generally 8 mice per group). Animals are sacrificed at 9 weeks of age, and biochemical, histological, and gene expression analyses are performed.
(§2) During weeks 5-9 (starting at day 35±2), test compound is administered (generally orally) at various doses diluted to 10 mL/kg and according to various dosing protocols to treatment groups (8 mice each) while a second group (8 mice) is administered vehicle only. Animals are sacrificed at 9 weeks.
Measurement of whole blood and plasma biochemistry. Non-fasting blood glucose was measured in whole blood using LIFE CHECK (EIDIA, Japan). For plasma biochemistry, blood was collected in polypropylene tubes with anticoagulant (Novo-Heparin, Mochida Pharmaceutical, Japan) and centrifuged at 1,000×g for 15 minutes at 4° C. The supernatant was collected and stored at −80° C. until use. Plasma ALT levels were measured by FUJI DRI-CHEM 7000 (Fujifilm, Japan). Plasma insulin, MIF and IL-22 were quantified by Ultra Sensitive Mouse Insulin ELISA Kit (Morinaga Institute of Biological science, Japan), Mouse Macrophage Migration Inhibitory Factor (MIF) ELISA (Kamiya Biomedical, USA), Quantikine ELISA Mouse/Rat IL-22 Immunoassay kit (R&D Systems, USA), respectively.
(§3) Illustrative dose response test groups. Group 1-Normal. Eight normal mice are fed with a normal diet ad libitum without any treatment until 9 weeks of age. Group 2-Vehicle. Eight NASH mice are orally administered vehicle (0.5% w/v methylcellulose+0.2% Tween®80) in a volume of 10 mL/kg twice daily from 5 to 9 week of age. Group 3-solithromycin 5 mg/kg. Eight NASH mice are orally administered vehicle supplemented with solithromycin at a dose of 5 mg/kg in the morning and the vehicle in the evening (5 mg/kg/day) from 5 to 9 weeks of age. Group 4-solithromycin 10 mg/kg. Eight NASH mice are orally administered vehicle supplemented with solithromycin at a dose of 10 mg/kg twice daily (20 mg/kg/day) from 5 to 9 weeks of age. Group 5-solithromycin 25 mg/kg. Eight NASH mice are orally administered vehicle supplemented with solithromycin at a dose of 25 mg/kg twice daily (50 mg/kg/day) from 5 to 9 weeks of age. Group 6-solithromycin 50 mg/kg. Eight NASH mice are orally administered vehicle supplemented with solithromycin at a dose of 50 mg/kg once daily (50 mg/kg/day) from 5 to 9 weeks of age.

STAM mice [2] = experiment: STAM model: HE staining, NAFLD Activity score; details: for NAFLD Activity Score: 5-9 wks
Procedure: as §1, §2
Histopathological analyses. For HE staining, sections are cut from paraffin blocks of left lateral liver tissue prefixed in Bouin's solution and stained with Lillie-Mayer's Hematoxylin (Muto Pure Chemicals, Japan) and eosin solution (Wako Pure Chemical Industries). NAFLD Activity score (NAS) is calculated according to the criteria of Kleiner (Kleiner D E. et al., Hepatology, 2005; 41:1313). A NAS≧5 with steatosis and hepatocyte ballooning is generally considered diagnostic of NASH.
as §3

STAM mice [3] = experiment: STAM model: liver immunohistochemistry (F4/80, Gr-1, CK-18); details: for F4/80-positive area (%) a measure of macrophage density: STAM mice liver
Procedure: as §1, §2
For immunohistochemistry (a measure of inflammation), sections are cut from frozen liver tissues embedded in Tissue-Tek O.C.T. compound and fixed in acetone. Endogenous peroxidase activity is blocked using 0.03% H2O2 for 5 minutes, followed by incubation with Block Ace (Dainippon Sumitomo Pharma, Japan) for 10 minutes. The sections were incubated with a 200-fold dilution of anti-F4/80 antibody (BMA Biomedicals, Switzerland), a 50-fold dilution of anti-CK-18 antibody (LifeSpan BioSciences, USA) or anti-Gr-1 antibody (culture supernatant) over night at 4° C. F4/80 is a marker for macrophage and Kupffer cells in the liver; CK-18 antibody measures the cytoskeleton in damaged hepatocytes; and anti-Gr-1 antibody measures the neutrophil response. After incubation with secondary antibody (HRP-Goat anti-rat antibody, Invitrogen, USA), enzyme-substrate reactions are performed using 3, 3′-diaminobenzidine/H2O2 solution (Nichirei, Japan).
(§4) For quantitative analysis of fibrosis area, bright field images of Sirius red-stained sections are captured around the central vein using a digital camera (DFC280; Leica, Germany) at 200-fold magnification, and the positive areas in 5 fields/section are measured using ImageJ software (National Institute of Health, USA). For quantitative analysis of inflammation area, bright field images of F4/80-immunostained sections are captured around the central vein using a digital camera (DFC280; Leica, Germany) at 200-fold magnification, and the positive areas in 5 fields/section are measured using ImageJ software (National Institute of Health, USA).
as §3

STAM mice [4] = experiment: STAM model: Sirius red staining, fibrosis area; details: for Sirius red-positive area (% of area showing fibrosis): STAM mice liver
Procedure: as §1, §2
To visualize collagen deposition (a measure of fibrosis), Bouin's fixed left lateral liver sections are stained using picro-Sirius red solution (Waldeck, Germany).
as §4, §3

[5] = 5 mg/kg q.d. oral, listed as Solithromycin, 5 mg/kg
[6] = 10 mg/kg b.i.d. oral, listed as Solithromycin, 10 mg/kg
[7] = 25 mg/kg b.i.d. oral, listed as Solithromycin, 25 mg/kg
[8] = 50 mg/kg q.d. oral, listed as Solithromycin, 50 mg/kg

Compound: CC[C@H]1OC(=O)[C@@](C)(F)C(=O)[C@H](C)[C@@H](O[C@@H]2O[C@H](C)C[C@H](N(C)C)[C@H]2O)[C@](C)(OC)C[C@@H](C)C(=O)[C@H](C)[C@H]2N(CCCCn3cc(-c4cccc(N)c4)nn3)C(=O)O[C@]12C [solithromycin]
- Plasma ALT (STAM mice [1]; 5 mg/kg q.d.): 52 ± 78 U/L
- Plasma IL-22 (STAM mice [1]; 5 mg/kg q.d.): 31.8 ± 1.6 pg/mL
- Plasma insulin (STAM mice [1]; 5 mg/kg q.d.): 0.25 ± 0.10 ng/mL
- Plasma MIF (STAM mice [1]; 5 mg/kg q.d., 5 mg/kg): no statistically significant differences
- Plasma MIF (STAM mice [1]; 5 mg/kg q.d., listed as SOLI, 5 mg/kg): 4665 ± 2131 pg/mL
- Plasma ALT (STAM mice [1]; 10 mg/kg b.i.d.): 31 ± 19 U/L
- Plasma IL-22 (STAM mice [1]; 10 mg/kg b.i.d.): 33.0 ± 5.0 pg/mL
- Plasma insulin (STAM mice [1]; 10 mg/kg b.i.d.): 0.41 ± 0.35 ng/mL
- Plasma MIF (STAM mice [1]; 10 mg/kg b.i.d., 10 mg/kg): no statistically significant differences
- Plasma MIF (STAM mice [1]; 10 mg/kg b.i.d., listed as SOLI, 10 mg/kg): 4852 ± 1720 pg/mL
- Plasma ALT (STAM mice [1]; 25 mg/kg b.i.d.): 34 ± 14 U/L
- Plasma IL-22 (STAM mice [1]; 25 mg/kg b.i.d.): 33.8 ± 7.2 pg/mL
- Plasma insulin (STAM mice [1]; 25 mg/kg b.i.d.): 0.41 ± 0.22 ng/mL
- Plasma MIF (STAM mice [1]; 25 mg/kg b.i.d., 25 mg/kg): significantly increased
- Plasma MIF (STAM mice [1]; 25 mg/kg b.i.d., listed as SOLI, 25 mg/kg): 11748 ± 7633 pg/mL
- Plasma IL-22 levels compared to vehicle group (STAM mice [1]; any doses): no statistically significant differences
- Plasma insulin levels compared to vehicle group (STAM mice [1]; any doses): no statistically significant differences; also recorded: not significantly affected
- Plasma ALT levels compared to vehicle group (STAM mice [1]; any doses (Groups 3-6)): no significant differences
- Whole Blood Glucose Levels (STAM mice [1]; 5 mg/kg q.d. oral, 5 mg/kg): no statistically significant differences
- Whole Blood Glucose Levels (STAM mice [1]; 5 mg/kg q.d. oral, listed as SOLI, 5 mg/kg): 726 ± 101 mg/dL
- Whole Blood Glucose Levels (STAM mice [1]; [5]): 726 ± 101 mg/dL
- Whole Blood Glucose Levels (STAM mice [1]; 10 mg/kg b.i.d. oral, 10 mg/kg): no statistically significant differences
- Whole Blood Glucose Levels (STAM mice [1]; 10 mg/kg b.i.d. oral, listed as SOLI, 10 mg/kg): 713 ± 172 mg/dL
- Whole Blood Glucose Levels (STAM mice [1]; [6]): 713 ± 172 mg/dL
- Whole Blood Glucose Levels (STAM mice [1]; 25 mg/kg b.i.d. oral, 25 mg/kg): Statistically significant blood glucose decrease
- Whole Blood Glucose Levels (STAM mice [1]; 25 mg/kg b.i.d. oral, listed as SOLI, 25 mg/kg): 497 ± 259 mg/dL
- Whole Blood Glucose Levels (STAM mice [1]; [7]): 497 ± 259 mg/dL
- Whole Blood Glucose Levels (STAM mice [1]; 50 mg/kg q.d. oral, 50 mg/kg): Statistically significant blood glucose decrease
- Whole Blood Glucose Levels (STAM mice [1]; [8]): 380 ± 170 mg/dL
- NAFLD Activity Score (STAM mice [2]; 5 mg/kg q.d. oral, 5 mg/kg): no statistically significant difference
- NAFLD Activity Score (STAM mice [2]; [5]): 4.8 ± 0.9
- NAFLD Activity Score (STAM mice [2]; 10 mg/kg b.i.d. oral, 10 mg/kg): significantly decreased
- NAFLD Activity Score (STAM mice [2]; [6]): 3.3 ± 0.9
- NAFLD Activity Score (STAM mice [2]; 25 mg/kg b.i.d. oral, 25 mg/kg): significantly decreased
- NAFLD Activity Score (STAM mice [2]; [7]): 2.9 ± 1.0
- NAFLD Activity Score (STAM mice [2]; 50 mg/kg q.d. oral, 50 mg/kg): significant reduction
- NAFLD Activity Score (STAM mice [2]; [8]): 3.0 ± 0.9
- Hepatocellular ballooning and inflammatory cell infiltration compared to vehicle group (STAM mice [2]; Groups 4-6): significant improvements
- F4/80-positive area (%) a measure of macrophage density (STAM mice [3]; 5 mg/kg): 10.83 ± 1.38%
- F4/80-positive area (%) a measure of macrophage density (STAM mice [3]; 10 mg/kg): 9.33 ± 1.31%
- F4/80-positive area (%) a measure of macrophage density (STAM mice [3]; 25 mg/kg): 10.63 ± 2.11%
- Area of F4/80-positive macrophages compared to vehicle group (STAM mice [3]; STAM mice, Groups 3-6): no significant differences
- Gr-1 positive cells (neutrophil infiltration) in liver compared to vehicle group (STAM mice [3]; STAM mice, all doses): decreased; also recorded: reduced
- CK-18 immunostaining compared to vehicle group (STAM mice [3]; STAM mice, any doses): no obvious changes
- Sirius red-positive area (% of area showing fibrosis) (STAM mice [4]; 5 mg/kg): no statistically significant differences
- Sirius red-positive area (% of area showing fibrosis) (STAM mice [4]; 5 mg/kg, listed as SOLI): 0.85 ± 0.28%
- Sirius red-positive area (% of area showing fibrosis) (STAM mice [4]; 10 mg/kg): tended to decrease
- Sirius red-positive area (% of area showing fibrosis) (STAM mice [4]; 10 mg/kg, listed as SOLI): 0.72 ± 0.27%
- Sirius red-positive area (% of area showing fibrosis) (STAM mice [4]; 25 mg/kg): significantly decreased; also recorded: Statistically significant reduced fibrosis
- Sirius red-positive area (% of area showing fibrosis) (STAM mice [4]; 25 mg/kg, listed as SOLI): 0.65 ± 0.27 %
- Fibrosis area (Sirius red-positive area) compared to vehicle group (STAM mice [4]; STAM mice, Group 6 (50 mg/kg q.d.)): significantly decreased

— patent US20170165286A1, “COMPOSITIONS AND METHODS FOR TREATING DIABETES AND LIVER DISEASES” (Cempra Pharmaceuticals, Inc., priority 2014, published 2017)
